Test results as given in ChEMBL document CHEMBL4002643, “Tubulin-binding dibenz[c,e]oxepines: Part 2. Structural variation and biological evaluation as tumour vasculature disrupting agents” (Bioorg Med Chem, 2017).

Assays:
Hs-578T = assay: Cytotoxicity against human Hs 578T cells assessed as growth inhibition after 48 hrs by SRB assay; type: functional
PC-3 = assay: Cytotoxicity against human PC3 cells assessed as growth inhibition after 48 hrs by SRB assay; type: functional; details: PC-3, 48 h
MCF7 = assay: Cytotoxicity against human MCF7 cells assessed as growth inhibition after 48 hrs by SRB assay; type: functional; details: MCF7, 48 h
NCI-H522 = assay: Cytotoxicity against human NCI-H522 cells assessed as growth inhibition after 48 hrs by SRB assay; type: functional; details: NCI-H522, 48 h
M14 = assay: Cytotoxicity against human M14 cells assessed as growth inhibition after 48 hrs by SRB assay; type: functional; details: M14, 48 h
NCI-H226 = assay: Cytotoxicity against human NCI-H226 cells assessed as growth inhibition after 48 hrs by SRB assay; type: functional; details: NCI-H226, 48 h
A549 = assay: Cytotoxicity against human A549 cells assessed as growth inhibition after 48 hrs by SRB assay; type: functional; details: A549, 48 h
HL-60(TB) = assay: Cytotoxicity against human HL-60(TB) cells assessed as growth inhibition after 48 hrs by SRB assay; type: functional; details: HL-60, 48 h
NCI-H322M = assay: Cytotoxicity against human NCI-H322M cells assessed as growth inhibition after 48 hrs by SRB assay; type: functional
COLO 205 = assay: Cytotoxicity against human COLO205 cells assessed as growth inhibition after 48 hrs by SRB assay; type: functional; details: COLO 205, 48 h
SR = assay: Cytotoxicity against human SR cells assessed as growth inhibition after 48 hrs by SRB assay; type: functional
UO-31 = assay: Cytotoxicity against human UO31 cells assessed as growth inhibition after 48 hrs by SRB assay; type: functional; details: UO-31, 48 h
SF-539 = assay: Cytotoxicity against human SF539 cells assessed as growth inhibition after 48 hrs by SRB assay; type: functional; details: SF-539, 48 h
[1] = Inhibition of porcine tubulin assembly measured for 30 mins by UV/visible spectrophotometric method; parameters: species or system Sus scrofa
HCC 2998 = assay: Cytotoxicity against human HCC2998 cells assessed as growth inhibition after 48 hrs by SRB assay; type: functional; details: HCC 2998, 48 h
UACC-62 = assay: Cytotoxicity against human UACC62 cells assessed as growth inhibition after 48 hrs by SRB assay; type: functional; details: UACC-62, 48 h
MDA-MB-435 = assay: Cytotoxicity against human MDA-MB-435 cells assessed as growth inhibition after 48 hrs by SRB assay; type: functional; details: MDA-MB-435, 48 h
MDA-MB-468 = assay: Cytotoxicity against human MDA-MB-468 cells assessed as growth inhibition after 48 hrs by SRB assay; type: functional; details: MDA-MB-468, 48 h
OVCAR-8 = assay: Cytotoxicity against human OVCAR8 cells assessed as growth inhibition after 48 hrs by SRB assay; type: functional; details: OVCAR-8, 48 h
SNB-75 = assay: Cytotoxicity against human SNB75 cells assessed as growth inhibition after 48 hrs by SRB assay; type: functional; details: SNB-75, 48 h
BT-549 = assay: Cytotoxicity against human BT549 cells assessed as growth inhibition after 48 hrs by SRB assay; type: functional; details: BT-549, 48 h
SK-MEL-28 = assay: Cytotoxicity against human SK-MEL-28 cells assessed as growth inhibition after 48 hrs by SRB assay; type: functional; details: SK-MEL-28, 48 h
LOX IMVI = assay: Cytotoxicity against human LOXIMVI cells assessed as growth inhibition after 48 hrs by SRB assay; type: functional
SK-MEL-5 = assay: Cytotoxicity against human SK-MEL-5 cells assessed as growth inhibition after 48 hrs by SRB assay; type: functional; details: SK-MEL-5, 48 h
T47D = assay: Cytotoxicity against human T47D cells assessed as growth inhibition after 48 hrs by SRB assay; type: functional
NCI-H460 = assay: Cytotoxicity against human NCI-H460 cells assessed as growth inhibition after 48 hrs by SRB assay; type: functional; details: NCI-H460, 48 h
A498 = assay: Cytotoxicity against human A498 cells assessed as growth inhibition after 48 hrs by SRB assay; type: functional; details: A498, 48 h
HOP-62 = assay: Cytotoxicity against human HOP62 cells assessed as growth inhibition after 48 hrs by SRB assay; type: functional; details: HOP-62, 48 h
U-251 = assay: Cytotoxicity against human U251 cells assessed as growth inhibition after 48 hrs by SRB assay; type: functional; details: U-251, 48 h
RXF 393 = assay: Cytotoxicity against human RXF393 cells assessed as growth inhibition after 48 hrs by SRB assay; type: functional; details: RXF 393, 48 h
MDA-MB-231 = assay: Cytotoxicity against human MDA-MB-231 cells assessed as growth inhibition after 48 hrs by SRB assay; type: functional; details: MDA-MB-231, 48 h
SW-620 = assay: Cytotoxicity against human SW620 cells assessed as growth inhibition after 48 hrs by SRB assay; type: functional; details: SW-620, 48 h
IGROV-1 = assay: Cytotoxicity against human IGROV1 cells assessed as growth inhibition after 48 hrs by SRB assay; type: functional; details: IGROV-1, 48 h
CCRF-CEM = assay: Cytotoxicity against human CCRF-CEM cells assessed as growth inhibition after 48 hrs by SRB assay; type: functional
RPMI-8226 = assay: Cytotoxicity against human RPMI8226 cells assessed as growth inhibition after 48 hrs by SRB assay; type: functional; details: RPMI-8226, 48 h
DU-145 = assay: Cytotoxicity against human DU145 cells assessed as growth inhibition after 48 hrs by SRB assay; type: functional; details: DU-145, 48 h
SF-268 = assay: Cytotoxicity against human SF268 cells assessed as growth inhibition after 48 hrs by SRB assay; type: functional; details: SF-268, 48 h
SK-MEL-2 = assay: Cytotoxicity against human SK-MEL-2 cells assessed as growth inhibition after 48 hrs by SRB assay; type: functional; details: SK-MEL-2, 48 h
OVCAR-4 = assay: Cytotoxicity against human OVCAR4 cells assessed as growth inhibition after 48 hrs by SRB assay; type: functional; details: OVCAR-4, 48 h
786-0 = assay: Cytotoxicity against human 786-0 cells assessed as growth inhibition after 48 hrs by SRB assay; type: functional; details: 786-0, 48 h
KM12 = assay: Cytotoxicity against human KM12 cells assessed as growth inhibition after 48 hrs by SRB assay; type: functional; details: KM12, 48 h
NCI-H23 = assay: Cytotoxicity against human NCI-H23 cells assessed as growth inhibition after 48 hrs by SRB assay; type: functional; details: NCI-H23, 48 h
SNB-19 = assay: Cytotoxicity against human SNB19 cells assessed as growth inhibition after 48 hrs by SRB assay; type: functional; details: SNB-19, 48 h
SF-295 = assay: Cytotoxicity against human SF295 cells assessed as growth inhibition after 48 hrs by SRB assay; type: functional; details: SF-295, 48 h
SN12C = assay: Cytotoxicity against human SN12C cells assessed as growth inhibition after 48 hrs by SRB assay; type: functional
NCI/ADR-RES = assay: Cytotoxicity against human NCI-ADR-RES cells assessed as growth inhibition after 48 hrs by SRB assay; type: functional

## COc1ccc2c(c1OP(=O)([O-])[O-])COCc1cc(OC)c(OC)c(OC)c1-2.[Na+].[Na+]
Hs-578T
  GI50: 240 nM
PC-3
  GI50: 560 nM
MCF7
  GI50: 400 nM
NCI-H522
  GI50: 300 nM
M14
  GI50: 270 nM
NCI-H226
  GI50: 2820 nM
A549
  GI50: 420 nM
HL-60(TB)
  GI50: 320 nM
NCI-H322M
  GI50: 1320 nM
COLO 205
  GI50: 620 nM
SR
  GI50: 190 nM
UO-31
  GI50: 19500 nM
SF-539
  GI50: 330 nM
[1]
  IC50: 1400 nM
HCC 2998
  GI50: 420 nM
UACC-62
  GI50: 5500 nM
MDA-MB-435
  GI50: 40 nM
MDA-MB-468
  GI50: 1150 nM
OVCAR-8
  GI50: 420 nM
SNB-75
  GI50: 540 nM
BT-549
  GI50: 2240 nM
SK-MEL-28
  GI50: 890 nM
LOX IMVI
  GI50: 660 nM
SK-MEL-5
  GI50: 260 nM
T47D
  GI50: 8510 nM
NCI-H460
  GI50: 360 nM
A498
  GI50: 18600 nM
HOP-62
  GI50: 790 nM
U-251
  GI50: 480 nM
RXF 393
  GI50: 210 nM
MDA-MB-231
  GI50: 710 nM
SW-620
  GI50: 400 nM
IGROV-1
  GI50: 4070 nM
CCRF-CEM
  GI50: 290 nM
RPMI-8226
  GI50: 460 nM
DU-145
  GI50: 390 nM
SF-268
  GI50: 790 nM
SK-MEL-2
  GI50: 5370 nM
OVCAR-4
  GI50: 1290 nM
786-0
  GI50: 720 nM
KM12
  GI50: 300 nM
NCI-H23
  GI50: 710 nM
SNB-19
  GI50: 510 nM
SF-295
  GI50: 320 nM
SN12C
  GI50: 720 nM
NCI/ADR-RES
  GI50: 280 nM

## COc1ccc2c(c1)COCc1cc(OC)c(OC)c(OC)c1-2
Hs-578T
  GI50: 240 nM
PC-3
  GI50: 480 nM
MCF7
  GI50: 40 nM
NCI-H522
  GI50: 280 nM
M14
  GI50: 50 nM
NCI-H226
  GI50: 1580 nM
A549
  GI50: 130 nM
HL-60(TB)
  GI50: 40 nM
NCI-H322M
  GI50: 2040 nM
COLO 205
  GI50: 110 nM
SR
  GI50: 40 nM
UO-31
  GI50: 15100 nM
SF-539
  GI50: 160 nM
[1]
  IC50: 7400 nM
HCC 2998
  GI50: 220 nM
UACC-62
  GI50: 80 nM
MDA-MB-435
  GI50: 30 nM
MDA-MB-468
  GI50: 30 nM
OVCAR-8
  GI50: 310 nM
SNB-75
  GI50: 90 nM
BT-549
  GI50: 200 nM
SK-MEL-28
  GI50: 80 nM
LOX IMVI
  GI50: 210 nM
SK-MEL-5
  GI50: 30 nM
T47D
  GI50: > 100000 nM
NCI-H460
  GI50: 170 nM
A498
  GI50: 170 nM
HOP-62
  GI50: 1120 nM
U-251
  GI50: 100 nM
RXF 393
  GI50: 80 nM
MDA-MB-231
  GI50: 590 nM
SW-620
  GI50: 50 nM
IGROV-1
  GI50: 850 nM
CCRF-CEM
  GI50: 80 nM
RPMI-8226
  GI50: 330 nM
DU-145
  GI50: 180 nM
SF-268
  GI50: 460 nM
SK-MEL-2
  GI50: 100 nM
OVCAR-4
  GI50: 740 nM
786-0
  GI50: 340 nM
KM12
  GI50: 50 nM
NCI-H23
  GI50: 440 nM
SNB-19
  GI50: 980 nM
SF-295
  GI50: 60 nM
SN12C
  GI50: 830 nM
NCI/ADR-RES
  GI50: 70 nM

## COc1ccc2c(c1O)COCc1cc(OC)c(OC)c(OC)c1-2
Hs-578T
  GI50: 40 nM
PC-3
  GI50: 280 nM
MCF7
  GI50: 70 nM
NCI-H522
  GI50: 40 nM
M14
  GI50: 50 nM
NCI-H226
  GI50: 3470 nM
A549
  GI50: 350 nM
HL-60(TB)
  GI50: 30 nM
NCI-H322M
  GI50: 520 nM
COLO 205
  GI50: 500 nM
SR
  GI50: 40 nM
UO-31
  GI50: 14500 nM
SF-539
  GI50: 50 nM
[1]
  IC50: 2200 nM
HCC 2998
  GI50: 320 nM
UACC-62
  GI50: 1000 nM
MDA-MB-435
  GI50: 30 nM
MDA-MB-468
  GI50: 220 nM
OVCAR-8
  GI50: 200 nM
SNB-75
  GI50: 70 nM
BT-549
  GI50: 260 nM
SK-MEL-28
  GI50: 1580 nM
LOX IMVI
  GI50: 80 nM
SK-MEL-5
  GI50: 40 nM
T47D
  GI50: 33900 nM
NCI-H460
  GI50: 310 nM
A498
  GI50: 3020 nM
HOP-62
  GI50: 630 nM
U-251
  GI50: 300 nM
RXF 393
  GI50: 40 nM
MDA-MB-231
  GI50: 270 nM
SW-620
  GI50: 50 nM
IGROV-1
  GI50: 630 nM
CCRF-CEM
  GI50: 40 nM
RPMI-8226
  GI50: 320 nM
DU-145
  GI50: 60 nM
SF-268
  GI50: 90 nM
SK-MEL-2
  GI50: 260 nM
OVCAR-4
  GI50: 710 nM
786-0
  GI50: 430 nM
KM12
  GI50: 50 nM
NCI-H23
  GI50: 760 nM
SNB-19
  GI50: 140 nM
SF-295
  GI50: 270 nM
SN12C
  GI50: 210 nM
NCI/ADR-RES
  GI50: 50 nM
